Test results: ChEMBL document CHEMBL2074090, “Characterization of the transport properties of cloned rat multidrug resistance-associated protein 3 (MRP3)” (J Biol Chem, 1999)

Tests used:
[1] = biological target: T1, MRP3 (ABCC3, ATP-binding cassette sub-family C member 3) (Rattus norvegicus, UniProt O88563); test: TP_TRANSPORTER: inhibition of E217betaG uptake (E217betaG: 0.1 uM, alpha-naphthyl beta-D-glucuronide: 200 uM) in membrane vesicle from Mrp3-expressing LLC-PK1 cells; type: functional, cell membranes; set-up: scale not given: the % may be the effect or the level left; conditions: pig, membrane vesicles from Mrp3-expressing LLC-PK1 cells, probe E217betaG; read-out: Activity
[2] = biological target: T1, MRP3 (ABCC3, ATP-binding cassette sub-family C member 3); test: TP_TRANSPORTER: inhibition of E217betaG uptake (E217betaG: 0.1 uM, E3040 glucuronide: 50 uM) in membrane vesicles from MRP3-expressing HeLa cells; type: functional, cell membranes, Membrane vesicle; set-up: scale not given: the % may be the effect or the level left; conditions: human, probe E217betaG, read-out: Activity
[3] = biological target: ATP-binding cassette sub-family C member 3 (Rattus norvegicus, UniProt O88563); test: (§1) TP_TRANSPORTER: uptake in membrane vesicle from Mrp3-expressing LLC-PK1 cells; type: functional, cell membranes; conditions: pig
[4] = biological target: T1, MRP3 (ABCC3, ATP-binding cassette sub-family C member 3); test: TP_TRANSPORTER: inhibition of E217betaG uptake (E217betaG: 0.1 uM, E1S: 500 uM) in membrane vesicle from Mrp3-expressing LLC-PK1 cells; type: functional, cell membranes; set-up: scale not given: the % may be the effect or the level left; conditions: pig, membrane vesicles from Mrp3-expressing LLC-PK1 cells, probe E217betaG; read-out: Activity
[5] = biological target: T1, MRP3 (ABCC3, ATP-binding cassette sub-family C member 3); test: TP_TRANSPORTER: inhibition of E217betaG uptake (E217betaG: 0.1 uM, LTC4: 2.5 uM) in membrane vesicle from Mrp3-expressing LLC-PK1 cells; type: functional, cell membranes; set-up: scale not given: the % may be the effect or the level left; conditions: pig, membrane vesicles from Mrp3-expressing LLC-PK1 cells, probe E217betaG; read-out: Activity
[6] = biological target: T1, MRP3 (ABCC3, ATP-binding cassette sub-family C member 3); test: TP_TRANSPORTER: inhibition of E217betaG uptake (E217betaG: 0.1 uM, DNP-SG: 500 uM) in membrane vesicles from MRP3-expressing LLC-PK1 cells; type: functional, cell membranes, Membrane vesicle; set-up: scale not given: the % may be the effect or the level left; conditions: pig, probe E217betaG, read-out: Activity
[7] = biological target: T1, MRP3 (ABCC3, ATP-binding cassette sub-family C member 3); test: TP_TRANSPORTER: inhibition of E217betaG uptake (E217betaG: 0.1 uM, 4-methylumbeliferone glucuronide: 500 uM) in membrane vesicle from Mrp3-expressing LLC-PK1 cells; type: functional, cell membranes; set-up: scale not given: the % may be the effect or the level left; conditions: pig, membrane vesicles from Mrp3-expressing LLC-PK1 cells, probe E217betaG; read-out: Activity
[8] = biological target: T1, MRP3 (ABCC3, ATP-binding cassette sub-family C member 3); test: TP_TRANSPORTER: inhibition of E217betaG uptake (E217betaG: 0.1 uM, MTX: 1000 uM) in membrane vesicles from MRP3-expressing HeLa cells; type: functional, cell membranes, Membrane vesicle; set-up: scale not given: the % may be the effect or the level left; conditions: human, probe E217betaG, read-out: Activity
[9] = biological target: T1, MRP3 (ABCC3, ATP-binding cassette sub-family C member 3); test: TP_TRANSPORTER: inhibition of E217betaG uptake (E217betaG: 0.1 uM, MTX: 1000 uM) in membrane vesicles from MRP3-expressing LLC-PK1 cells; type: functional, cell membranes, Membrane vesicle; set-up: scale not given: the % may be the effect or the level left; conditions: pig, probe E217betaG, read-out: Activity
[10] = substrate: C[C@]12CC[C@@H]3c4ccc(O)cc4CC[C@H]3[C@@H]1CC[C@@H]2O[C@@H]1O[C@H](C(=O)O)[C@@H](O)[C@H](O)[C@H]1O; test: as §1; type: functional, cell membranes

Molecule `O=C(O)[C@H]1O[C@@H](Oc2cccc3ccccc23)[C@H](O)[C@@H](O)[C@@H]1O` has an activity at 200 µM [1] of 23.6%.

`CNc1nc2c(Cc3cccnc3)c(C)c(O[C@@H]3O[C@H](C(=O)O)[C@@H](O)[C@H](O)[C@H]3O)c(C)c2s1` [E3040 GLUCURONIDE] was tested, and the activity at 50 µM [2] was 11.1% and the Activity [3] was “substrate [+]”.

`C[C@]12CC[C@@H]3c4ccc(OS(=O)(=O)O)cc4CC[C@H]3[C@@H]1CCC2=O` [ESTRONE SULFURIC ACID] gave an activity at 500 µM [4] of 33.3%.

`CCCCC/C=C\C\C=C/C=C/C=C/[C@@H](SC[C@@H](NC(=O)CC[C@H](N)C(=O)O)C(=O)NCC(=O)O)[C@@H](O)CCCC(=O)O` [LEUKOTRIEN C4] was tested, and the activity at 2.5 µM [5] was 57%.

`N[C@@H](CCC(=O)N[C@H](CSc1ccc([N+](=O)[O-])cc1[N+](=O)[O-])C(=O)NCC(=O)O)C(=O)O` showed an activity at 500 µM [6] of 14.4%.

`O=C(O)[C@H]1O[C@@H](OCc2cc(=O)oc3cc(O)ccc23)[C@H](O)[C@@H](O)[C@@H]1O` gave an activity at 500 µM [7] of 14.1%.

For `CN(Cc1cnc2nc(N)nc(N)c2n1)c1ccc(C(=O)N[C@@H](CCC(=O)O)C(=O)O)cc1` [METHOTREXATE], the activity at 1000 µM [8] was 18.5%, the Activity [3] was “substrate [+]” and the activity at 1000 µM [9] was 10.7%.

B1: ATP-binding cassette sub-family C member 3 (Rattus norvegicus) (protein)
chain: MDRLCGSGELGSKFWDSNLTVYTNTPDLTPCFQNSLLAWVPCIYLWAALPCYLFYLRHHRLGYIVLSCLSRLKTALGVLLWCISWVDLFYSFHGLVHGSSPAPVFFITPLLVGITMLLATLLIQYERLRGVRSSGVLIIFWLLCVICAIIPFRSKILLALAEGKILDPFRFTTFYIYFALVLCAFILSCFQEKPPLFSPENLDTNPCPEASAGFFSRLSFWWFTKLAILGYRRPLEDSDLWSLSEEDCSHKVVQRLLEAWQKQQTQASGPQTAALEPKIAGEDEVLLKARPKTKKPSFLRALVRTFTSSLLMGACFKLIQDLSPSSTHSCSASSSGLFRPHGPYWWGFLLAGLMFVSSTMQTLILHQHYHCIFVMALRIRTAIIGVIYRKALTITNSVKREYTVGEMVNLMSVDAQRFMDVSPFINLLWSAPLQVILAIYFLWQILGPSALAGVAVIVLLIPLNGAVSMKMKTYQVQQMKFKDSRIKLMSEILNGIKVLKLYAWEPTFLEQVEGIRQGELQLLRKGAYLQAISTFIWVCTPFMVTLITLGVYVCVDKNNVLDAEKAFVSLSLFNILKIPLNLLPQLISGMTQTSVSLKRIQDFLNQDELDPQCVERKTISPGRAITIHNGTFSWSKDLPPTLHSINIQIPKGALVAVVGPVGCGKSSLVSALLGEMEKLEGAVSVKGSVAYVPQQAWIQNCTLQENVLFGQPMNPKRYQQALETCALLADLDVLPGGDQTEIGEKGINLSGGQRQRVSLARAVYSDANIFLLDDPLSAVDSHVAKHIFDQVIGPEGVLAGKTRVLVTHGISFLPQTDFIIVLADGQITEMGHYSELLQHDGSFANFLRNYAPDENQEANEGVLQHANEEVLLLEDTLSTHTDLTDTEPAIYEVRKQFMREMSSLSSEGEGQNRPVLKRYTSSLEKEVPATQTKETGALIKEEIAETGNVKLSVYWDYAKSVGLCTTLFICLLYAGQNAVAIGANVWLSAWTNDVEEHGQQNNTSVRLGVYATLGILQGLLVMLSAFTMVVGAIQAARLLHTALLHNQIRAPQSFFDTTPSGRILNRFSKDIYVIHEVLAPTILMLFNSFYTSISTIVVIVASTPLFCVVVLPLAVFYGFVQRFYVATSRQLKRLESVSRSPIFSHFSETVTGTSVIRAYGRVQDFKVLSDAKVDSNQKTTYPYIASNRWLGVHVEFVGNCVVLFSALFAVIGRNSLNPGLVGLSVSYALQVTLSLNWMIRTLSDLESNIIAVERVKEYSKTETEAPWVLESNRAPEGWPRSGVVEFRNYSVRYRPGLELVLKNLTLHVQGGEKVGIVGRTGAGKSSMTLCLFRILEAAEGEIFIDGLNVAHIGLHDLRSQLTIIPQDPILFSGTLRMNLDPFGRYSDEDIWRTLELSHLSAFVSSQPTGLDFQCSEGGDNLSVGQRQLVCLARALLRKSRVLVLDEATAAIDLETDDLIQGTIRTQFEDCTVLTIAHRLNTIMDYNRVLVLDKGVVAEFDSPVNLIAAGGIFYGMAKDAGLA
With B1 the Km [10] was 110 µM.
